Measurements published in US12239134B2, “Plant antimicrobial compositions including an emulsifier and/or ozone and methods of use” (Arizona Board of Regents on Behalf of The University of …, priority 2018, dated 2025).
Several values for one entry are separate records, joined by “and”; a condition that tells them apart may be missing. Equal entries are not always repeated.

Key:
[1] = test system: Escherichia coli K-12 ATCC 25253; assay type: cell-based
Salmonella Newport = assay: Biofilm formation on food contact surface coupons, direct plating; assay type: cell-based, Salmonella enterica; conditions: two-minute treatment
Experimental: A protocol based on direct plating was also evaluated for testing the biofilm formation by Salmonella or L. monocytogenes. Biofilms were formed on three different food contact surface coupons (HDPE, Buna-N rubber, and 316 stainless steel) for up to 3 days in 35 mm mini-petri dishes. Biofilms were formed using a 1:10 diluted TSB solution (10 mL) with either S. enterica or L. monocytogenes inoculum (100 μL). The diluted TSB was changed every 16-18 hours with new 1:10 diluted TSB (10 mL). Coupons were removed for sampling and enumeration of strongly attached bacteria at three different time points (Day 0, 1, and 3). The coupons were rinsed with deionized water five times to remove planktonic cells. Then the coupons were immersed in 10 mL of BPW. The coupons were sonicated for 2 minutes using different settings (Tables 11 and 12) for each organism. After sonication, the solution was serially diluted and plated on Tryptic Soy Agar (TSA). Plates were incubated at 37° C. for 24-48 hours. The colonies were counted and the colony forming units were determined for the various sonication settings, so that the appropriate setting with the most recovery could be determined. […] These settings were used in further experiments to recover the bacterial cells from coupons during sampling and enumeration (by spread plating) of the bacteria in biofilms.
The reduction in bacterial biofilm formation was also tested using a direct plating method. Biofilms were formed on six different food contact surface coupons (HDPE, Buna-N rubber, PC, PVC, and stainless steel 304 and 316) in separate 35 mm mini-petri dishes and evaluated at three different time points (Day 0, 1, and 3). Biofilms were formed using a 1:10 diluted TSB solution (10 mL) with either S. enterica or L. monocytogenes inoculum (100 μL). The coupons were also washed and treated with antimicrobial solutions containing the plant-based emulsifier and the essential oil/plant extracts at various concentrations. The diluted TSB was changed every 16-18 hours with new 1:10 diluted TSB (10 mL). The coupons were rinsed in the antimicrobial solution before adding them to the petri dishes containing the fresh, diluted TSB. After their specific time points, coupons were removed aseptically using sterile forceps from the petri dish. The coupons were rinsed by submerging in 25 mL of sterile deionized H2O and swirled five times to remove planktonic cells. After rinsing, they were placed into a new petri dish immersed in 10 mL of BPW. The coupons were sonicated for 2 minutes on ice using different settings for each organism. After sonication, the sonicated solution was serially diluted using 0.1% peptone water and spread plated on TSA in duplicate. Plates were incubated overnight at 37° C. for 24-48 hours, after which, the colonies were counted, to establish the efficacy of the antimicrobial solutions (Tables 17-25).

Compound: OO [3% hydrogen peroxide, hydrogen peroxide]
- Bacterial reductions on spinach samples after sanitizer treatments [1]: 0.8-1.2 Log CFU/g and 1.0-1.3 Log CFU/g
- log reduction of E. coli K-12 on spinach [1]: 0.8-1.2 log and 1.0-1.3 log

Compound: CC(C)=CCCC(C)=CC=O [Citral, citral]
- Survivors of Salmonella Newport on food contact surface (Salmonella Newport; 0.5% with 0.0001% saponin microemulsion, Day 0, 304 SS): 4.32 Log CFU/mL
- Survivors of Salmonella Newport on food contact surface (Salmonella Newport; 0.5% with 0.0001% saponin microemulsion, Day 0, 316 SS): 4.36 Log CFU/mL
- Survivors of Salmonella Newport on food contact surface (Salmonella Newport; 0.5% with 0.0001% saponin microemulsion, Day 0, Buna N): 4.06 Log CFU/mL
- Survivors of Salmonella Newport on food contact surface (Salmonella Newport; 0.5% with 0.0001% saponin microemulsion, Day 0, HDPE): 3.44 Log CFU/mL
- Survivors of Salmonella Newport on food contact surface (Salmonella Newport; 0.5% with 0.0001% saponin microemulsion, Day 0, PC): 3.25 Log CFU/mL
- Survivors of Salmonella Newport on food contact surface (Salmonella Newport; 0.5% with 0.0001% saponin microemulsion, Day 0, PVC): 3.49 Log CFU/mL
- Survivors of Salmonella Newport on food contact surface (Salmonella Newport; 0.5% with 0.0001% saponin microemulsion, Day 1, 304 SS): 4.52 Log CFU/mL
- Survivors of Salmonella Newport on food contact surface (Salmonella Newport; 0.5% with 0.0001% saponin microemulsion, Day 1, 316 SS): 4.52 Log CFU/mL
- Survivors of Salmonella Newport on food contact surface (Salmonella Newport; 0.5% with 0.0001% saponin microemulsion, Day 1, Buna N): 4.34 Log CFU/mL
- Survivors of Salmonella Newport on food contact surface (Salmonella Newport; 0.5% with 0.0001% saponin microemulsion, Day 1, HDPE): 4.24 Log CFU/mL
- Survivors of Salmonella Newport on food contact surface (Salmonella Newport; 0.5% with 0.0001% saponin microemulsion, Day 1, PC): 4.20 Log CFU/mL
- Survivors of Salmonella Newport on food contact surface (Salmonella Newport; 0.5% with 0.0001% saponin microemulsion, Day 1, PVC): 4.27 Log CFU/mL
- Survivors of Salmonella Newport on food contact surface (Salmonella Newport; 0.5% with 0.0001% saponin microemulsion, Day 3, 304 SS): 4.20 Log CFU/mL
- Survivors of Salmonella Newport on food contact surface (Salmonella Newport; 0.5% with 0.0001% saponin microemulsion, Day 3, 316 SS): 4.36 Log CFU/mL
- Survivors of Salmonella Newport on food contact surface (Salmonella Newport; 0.5% with 0.0001% saponin microemulsion, Day 3, Buna N): 4.20 Log CFU/mL
- Survivors of Salmonella Newport on food contact surface (Salmonella Newport; 0.5% with 0.0001% saponin microemulsion, Day 3, HDPE): 3.56 Log CFU/mL
- Survivors of Salmonella Newport on food contact surface (Salmonella Newport; 0.5% with 0.0001% saponin microemulsion, Day 3, PC): 3.52 Log CFU/mL
- Survivors of Salmonella Newport on food contact surface (Salmonella Newport; 0.5% with 0.0001% saponin microemulsion, Day 3, PVC): 4.27 Log CFU/mL
- Survivors of Salmonella Newport on food contact surface (Salmonella Newport; 0.7% with 0.0001% saponin microemulsion, Day 0, 304 SS): 4.23 Log CFU/mL
- Survivors of Salmonella Newport on food contact surface (Salmonella Newport; 0.7% with 0.0001% saponin microemulsion, Day 0, 316 SS): 3.59 Log CFU/mL
- Survivors of Salmonella Newport on food contact surface (Salmonella Newport; 0.7% with 0.0001% saponin microemulsion, Day 0, Buna N): 4.52 Log CFU/mL
- Survivors of Salmonella Newport on food contact surface (Salmonella Newport; 0.7% with 0.0001% saponin microemulsion, Day 0, HDPE): 2.71 Log CFU/mL
- Survivors of Salmonella Newport on food contact surface (Salmonella Newport; 0.7% with 0.0001% saponin microemulsion, Day 0, PC): 3.59 Log CFU/mL
- Survivors of Salmonella Newport on food contact surface (Salmonella Newport; 0.7% with 0.0001% saponin microemulsion, Day 0, PVC): 3.24 Log CFU/mL
- Survivors of Salmonella Newport on food contact surface (Salmonella Newport; 0.7% with 0.0001% saponin microemulsion, Day 1, 304 SS): 3.36 Log CFU/mL
- Survivors of Salmonella Newport on food contact surface (Salmonella Newport; 0.7% with 0.0001% saponin microemulsion, Day 1, 316 SS): 3.24 Log CFU/mL
- Survivors of Salmonella Newport on food contact surface (Salmonella Newport; 0.7% with 0.0001% saponin microemulsion, Day 1, Buna N): 3.52 Log CFU/mL
- Survivors of Salmonella Newport on food contact surface (Salmonella Newport; 0.7% with 0.0001% saponin microemulsion, Day 1, HDPE): <1 Log CFU/mL
- Survivors of Salmonella Newport on food contact surface (Salmonella Newport; 0.7% with 0.0001% saponin microemulsion, Day 1, PC): <1 Log CFU/mL
- Survivors of Salmonella Newport on food contact surface (Salmonella Newport; 0.7% with 0.0001% saponin microemulsion, Day 1, PVC): <1 Log CFU/mL
- Survivors of Salmonella Newport on food contact surface (Salmonella Newport; 0.7% with 0.0001% saponin microemulsion, Day 3, 304 SS): <1 Log CFU/mL
- Survivors of Salmonella Newport on food contact surface (Salmonella Newport; 0.7% with 0.0001% saponin microemulsion, Day 3, 316 SS): <1 Log CFU/mL
- Survivors of Salmonella Newport on food contact surface (Salmonella Newport; 0.7% with 0.0001% saponin microemulsion, Day 3, Buna N): <1 Log CFU/mL
- Survivors of Salmonella Newport on food contact surface (Salmonella Newport; 0.7% with 0.0001% saponin microemulsion, Day 3, HDPE): <1 Log CFU/mL
- Survivors of Salmonella Newport on food contact surface (Salmonella Newport; 0.7% with 0.0001% saponin microemulsion, Day 3, PC): <1 Log CFU/mL
- Survivors of Salmonella Newport on food contact surface (Salmonella Newport; 0.7% with 0.0001% saponin microemulsion, Day 3, PVC): <1 Log CFU/mL
- Survivors of Salmonella Newport on food contact surface (Salmonella Newport; 1% with 0.0001% saponin microemulsion, Day 0, 304 SS): 3.91 Log CFU/mL
- Survivors of Salmonella Newport on food contact surface (Salmonella Newport; 1% with 0.0001% saponin microemulsion, Day 0, 316 SS): 4.13 Log CFU/mL
- Survivors of Salmonella Newport on food contact surface (Salmonella Newport; 1% with 0.0001% saponin microemulsion, Day 0, Buna N): 3.26 Log CFU/mL
- Survivors of Salmonella Newport on food contact surface (Salmonella Newport; 1% with 0.0001% saponin microemulsion, Day 0, HDPE): 4.45 Log CFU/mL
- Survivors of Salmonella Newport on food contact surface (Salmonella Newport; 1% with 0.0001% saponin microemulsion, Day 0, PC): 4.20 Log CFU/mL
- Survivors of Salmonella Newport on food contact surface (Salmonella Newport; 1% with 0.0001% saponin microemulsion, Day 0, PVC): 3.89 Log CFU/mL
- Survivors of Salmonella Newport on food contact surface (Salmonella Newport; 1% with 0.0001% saponin microemulsion, Day 1, 304 SS): <1 Log CFU/mL
- Survivors of Salmonella Newport on food contact surface (Salmonella Newport; 1% with 0.0001% saponin microemulsion, Day 1, 316 SS): <1 Log CFU/mL
- Survivors of Salmonella Newport on food contact surface (Salmonella Newport; 1% with 0.0001% saponin microemulsion, Day 1, Buna N): <1 Log CFU/mL
- Survivors of Salmonella Newport on food contact surface (Salmonella Newport; 1% with 0.0001% saponin microemulsion, Day 1, HDPE): <1 Log CFU/mL
- Survivors of Salmonella Newport on food contact surface (Salmonella Newport; 1% with 0.0001% saponin microemulsion, Day 1, PC): <1 Log CFU/mL
- Survivors of Salmonella Newport on food contact surface (Salmonella Newport; 1% with 0.0001% saponin microemulsion, Day 1, PVC): <1 Log CFU/mL
- Survivors of Salmonella Newport on food contact surface (Salmonella Newport; 1% with 0.0001% saponin microemulsion, Day 3, 304 SS): <1 Log CFU/mL
- Survivors of Salmonella Newport on food contact surface (Salmonella Newport; 1% with 0.0001% saponin microemulsion, Day 3, 316 SS): <1 Log CFU/mL
- Survivors of Salmonella Newport on food contact surface (Salmonella Newport; 1% with 0.0001% saponin microemulsion, Day 3, Buna N): <1 Log CFU/mL
- Survivors of Salmonella Newport on food contact surface (Salmonella Newport; 1% with 0.0001% saponin microemulsion, Day 3, HDPE): <1 Log CFU/mL
- Survivors of Salmonella Newport on food contact surface (Salmonella Newport; 1% with 0.0001% saponin microemulsion, Day 3, PC): <1 Log CFU/mL
- Survivors of Salmonella Newport on food contact surface (Salmonella Newport; 1% with 0.0001% saponin microemulsion, Day 3, PVC): <1 Log CFU/mL
